From ChEMBL document CHEMBL3745641, “Discovery and Structure-Guided Optimization of Diarylmethanesulfonamide Disrupters of Glucokinase-Glucokinase Regulatory Protein (GK-GKRP) Binding: Strategic Use of a N → S (nN → σ*S-X) Interaction for Conformational Constraint” (J Med Chem, 2015)

Tests used:
[1] = Intrinsic clearance in rat liver microsomes after 30 mins; format: ADME; conditions: read-out: CLH
[2] = Apparent permeability from apical to basolateral side in pig LLC-PK1 cells; format: ADME, cell-based, Sus scrofa
[3] = target: T1, Glucokinase regulatory protein (Mus musculus, UniProt Q91X44); assay: Inhibition of glucokinase-GKRP binding interaction in mouse hepatocytes assessed as induction of glucokinase translocation; format: cell-based, Hepatocyte
T1 sequence (Q91X44 whole entry): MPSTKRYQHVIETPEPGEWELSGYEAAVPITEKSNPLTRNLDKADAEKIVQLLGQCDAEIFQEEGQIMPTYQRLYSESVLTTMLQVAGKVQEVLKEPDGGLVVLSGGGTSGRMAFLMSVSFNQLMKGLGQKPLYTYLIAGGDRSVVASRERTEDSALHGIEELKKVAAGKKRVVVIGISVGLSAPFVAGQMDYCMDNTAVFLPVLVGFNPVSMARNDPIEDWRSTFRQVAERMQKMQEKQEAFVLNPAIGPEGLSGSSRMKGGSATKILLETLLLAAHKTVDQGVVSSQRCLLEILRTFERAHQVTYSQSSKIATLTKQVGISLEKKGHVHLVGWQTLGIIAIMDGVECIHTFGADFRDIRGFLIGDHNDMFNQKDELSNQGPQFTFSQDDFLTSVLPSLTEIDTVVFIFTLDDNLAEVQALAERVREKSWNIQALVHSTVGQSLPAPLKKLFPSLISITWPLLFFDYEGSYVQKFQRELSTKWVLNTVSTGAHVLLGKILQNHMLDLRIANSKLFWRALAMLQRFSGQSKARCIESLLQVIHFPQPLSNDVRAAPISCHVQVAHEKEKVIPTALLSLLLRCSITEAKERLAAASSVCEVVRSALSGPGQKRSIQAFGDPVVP

[4] = Plasma concentration in Sprague-Dawley rat at 10 mg/kg, po qd after 6 hrs; format: ADME, organism-based
[5] = Plasma concentration in Sprague-Dawley rat at 100 mg/kg, po qd after 6 hrs; format: ADME, organism-based
[6] = Plasma protein binding in rat by rapid equilibrium dialysis method; format: ADME, cell-free; conditions: read-out: PPB
[7] = Clearance in Sprague-Dawley rat at 2 mg/kg, iv; format: ADME, organism-based; conditions: in vivo
[8] = Volume of distribution at steady state in Sprague-Dawley rat at 2 mg/kg, iv; format: ADME, organism-based; conditions: in vivo, read-out: Vdss
[9] = Half life in Sprague-Dawley rat at 2 mg/kg, iv; format: ADME, organism-based; conditions: in vivo
[10] = Cmax in Sprague-Dawley rat at 10 mg/kg, po; format: ADME, organism-based; set-up: dose 10 mg/kg, route oral; conditions: in vivo
[11] = Tmax in Sprague-Dawley rat at 10 mg/kg, po; format: ADME, organism-based; conditions: in vivo
[12] = Oral bioavailability in Sprague-Dawley rat at 10 mg/kg; format: ADME, organism-based; conditions: in vivo
Plasma = assay: Drug uptake in po dosed Sprague-Dawley rat plasma administered qd measured after 6 hrs; format: ADME, organism-based; conditions: in vivo
[13] = Plasma concentration in Sprague-Dawley rat at 10 mg/kg, po qd at 24 hrs; format: ADME, organism-based
[14] = Plasma concentration in Sprague-Dawley rat at 100 mg/kg, po qd at 24 hrs; format: ADME, organism-based
[15] = Drug uptake in db/db mouse blood at 10 mg/kg, po qd after 6 hrs; format: ADME, organism-based; conditions: whole blood, read-out: Drug uptake
[16] = Drug uptake in db/db mouse blood at 30 mg/kg, po qd after 6 hrs; format: ADME, organism-based; conditions: whole blood, read-out: Drug uptake
[17] = Drug uptake in db/db mouse blood at 100 mg/kg, po qd after 6 hrs; format: ADME, organism-based; conditions: whole blood, read-out: Drug uptake
Blood = assay: Drug uptake in po dosed db/db mouse blood administered qd measured after 6 hrs; format: ADME, organism-based; conditions: in vivo
Mus musculus [18] = assay: Antidiabetic activity in db/db mouse assessed as reduction in blood glucose level at 100 mg/kg, po qd after 3 hrs relative to control; format: functional; set-up: scale not given: the % may be the effect or the level left
Mus musculus [19] = assay: Antidiabetic activity in db/db mouse assessed as reduction in blood glucose level at 100 mg/kg, po qd after 6 hrs relative to control; format: functional; set-up: scale not given: the % may be the effect or the level left
[20] = Drug uptake in db/db mouse blood at 100 mg/kg, po qd after 3 hrs; format: ADME, organism-based; conditions: whole blood, read-out: Drug uptake
Hexokinase-4 [21] = target: T2, Hexokinase-4 (Homo sapiens, UniProt P35557); assay: Binding affinity to human glucokinase by surface plasmon resonance analysis
T2 sequence (P35557 whole entry): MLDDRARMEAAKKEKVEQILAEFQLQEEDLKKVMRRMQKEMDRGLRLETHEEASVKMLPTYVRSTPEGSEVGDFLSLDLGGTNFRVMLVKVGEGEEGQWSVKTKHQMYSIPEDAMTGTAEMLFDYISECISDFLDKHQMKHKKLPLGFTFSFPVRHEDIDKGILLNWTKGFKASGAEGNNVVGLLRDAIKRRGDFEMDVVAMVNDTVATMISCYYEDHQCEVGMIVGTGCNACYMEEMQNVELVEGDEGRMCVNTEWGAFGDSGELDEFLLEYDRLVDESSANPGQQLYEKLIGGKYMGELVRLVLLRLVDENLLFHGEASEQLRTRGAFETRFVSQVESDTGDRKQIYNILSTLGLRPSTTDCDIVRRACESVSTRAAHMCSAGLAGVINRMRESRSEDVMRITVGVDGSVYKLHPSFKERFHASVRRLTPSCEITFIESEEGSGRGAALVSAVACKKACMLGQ

Hexokinase-4 [22] = target: T2, Hexokinase-4; assay: Effect on human glucokinase activity after 60 mins by luciferase-based luminescence assay in absence of human GKRP

C[C@@](O)(c1ccnc(-c2cccc3cc([C@H](NS(=O)(=O)C4CC4)c4ccccc4Cl)sc23)c1)C(F)(F)F showed a microsomal CLint [1] of under 14 µL/min/mg and a Papp A→B [2] of under 1.8 ×10⁻⁶ cm/s.
CC(C)(O)c1ccnc(-c2cccc3cc([C@H](NS(=O)(=O)C4CC4)c4nc(N)ccc4Cl)sc23)c1 gave a microsomal CLint [1] of 130 µL/min/mg and a Papp A→B [2] of 11 ×10⁻⁶ cm/s.
For COc1ccc(S(=O)(=O)N[C@@H](c2cc3ccccc3s2)c2ccccc2Cl)cc1, the microsomal CLint [1] was over 399 µL/min/mg and the EC50 [3] was over 12.5 µM.
In the case of CC(C)(O)c1ccnc(-c2cccc3cc([C@H](NS(=O)(=O)C4CC4)c4nc(N)ncc4Cl)sc23)c1, the microsomal CLint [1] is reported as 28 µL/min/mg, the concentration at 6 h [4] is reported as 2900 nM and the concentration at 6 h [5] is reported as 23000 nM. It also gave a Papp A→B [2] of 19 ×10⁻⁶ cm/s, a fraction unbound [6] of 0.01 and a clearance [7] of 4.67 mL/min/kg. The Vd [8] was 1.3 L/kg, the half-life [9] was 3 h and the Cmax [10] was 1900 nM. For the same molecule, the Tmax [11] was 4.7 h, the bioavailability [12] was 25% and the Drug uptake (Plasma) was “Dose-dependent effect”. It also gave a concentration at 24 h [13] of 200 nM, a concentration at 24 h [14] of 210 nM and a concentration at 6 h [15] of 1200 nM. For the same molecule, the concentration at 6 h [16] was 4100 nM, the concentration at 6 h [17] was 19000 nM and the Drug uptake (Blood) was “Dose-dependent effect”.
For CC(C)(O)c1ccnc(-c2cccc3cc([C@H](NS(=O)(=O)C4CC4)c4c(Cl)cnc(N)c4F)sc23)c1, the microsomal CLint [1] was 26 µL/min/mg, the Papp A→B [2] was 16 ×10⁻⁶ cm/s and the fraction unbound [6] was 0.01. The clearance [7] was 6 mL/min/kg, the Vd [8] was 1.6 L/kg and the half-life [9] was 3.1 h. It also gave a Cmax [10] of 2800 nM, a Tmax [11] of 3.3 h and a bioavailability [12] of 46%. The Drug uptake (Plasma) was “Dose-dependent effect”, the concentration at 24 h [13] was 220 nM and the concentration at 24 h [14] was 6300 nM. It also gave a concentration at 6 h [17] of 21000 nM, an Activity (Mus musculus [18]) of 45% and an Activity (Mus musculus [19]) of 33%. The concentration at 3 h [20] was 25000 nM.
CC(C)(O)c1ccnc(-c2cccc3cc([C@H](NS(=O)(=O)C4CC4)c4ccccc4Cl)sc23)c1 showed a microsomal CLint [1] of 34 µL/min/mg and a Papp A→B [2] of 7.5 ×10⁻⁶ cm/s.
In the case of O=S(=O)(N[C@@H](c1nc2cccnc2s1)c1ccccc1Cl)c1ccc2c(c1)OCCCO2, the microsomal CLint [1] is reported as over 399 µL/min/mg and the EC50 [3] is reported as 3.3 µM.
With CC(C)(O)c1ccnc(-c2cccc3cc([C@H](NS(=O)(=O)C4CC4)c4nc(N)c(F)cc4Cl)sc23)c1 the microsomal CLint [1] was 28 µL/min/mg and the Papp A→B [2] was 7.8 ×10⁻⁶ cm/s.
O=S(=O)(N[C@@H](c1cc2ccccc2s1)c1ccccc1Cl)c1ccc2c(c1)OCCCO2 gave a microsomal CLint [1] of over 399 µL/min/mg and a Kd (Hexokinase-4 [21]) of over 10 µM.
With CC(C)(O)c1ccnc(-c2cccc3cc([C@H](NS(=O)(=O)C4CC4)c4cc(N)ncc4Cl)sc23)c1 the microsomal CLint [1] was 67 µL/min/mg and the Papp A→B [2] was 19 ×10⁻⁶ cm/s.
With O=S(=O)(N[C@@H](c1cc2ccccc2s1)c1ccccc1Cl)c1ccc2c(c1)OCO2 the microsomal CLint [1] was over 399 µL/min/mg and the EC50 [3] was over 12.5 µM.
Work on O=S(=O)(N[C@H](c1ccccc1)c1cc2ccccc2o1)c1ccc2c(c1)OCCCO2 yielded a microsomal CLint [1] of over 399 µL/min/mg.
Work on O=S(=O)(N[C@@H](c1cc2ccccc2s1)c1ccccc1Cl)c1ccc2c(c1)OCCO2 yielded a microsomal CLint [1] of over 399 µL/min/mg and an EC50 [3] of over 12.5 µM.
Molecule O=S(=O)(NC(c1ccccc1)c1cc2ccccc2o1)c1ccc2c(c1)OCCCO2 (stereo not given) has an EC50 (Hexokinase-4 [22]) of over 100 µM and a Kd (Hexokinase-4 [21]) of over 20 µM.
Work on C[C@@](O)(c1cccc(-c2cccc3cc([C@H](NS(=O)(=O)C4CC4)c4ccccc4Cl)sc23)c1)C(F)(F)F yielded a microsomal CLint [1] of under 14 µL/min/mg.
In the case of C[C@](O)(c1cccc(-c2cccc3cc([C@H](NS(=O)(=O)C4CC4)c4ccccc4Cl)sc23)c1)C(F)(F)F, the microsomal CLint [1] is reported as under 14 µL/min/mg.
Molecule O=S(=O)(N[C@@H](c1cc2ccccc2s1)c1ccccc1Cl)c1ccccc1 has a microsomal CLint [1] of over 399 µL/min/mg and an EC50 [3] of over 12.5 µM.
Work on O=S(=O)(N[C@@H](c1cc2ccccc2s1)c1ccccc1Cl)C1CC1 yielded a microsomal CLint [1] of over 399 µL/min/mg and an EC50 [3] of over 12.5 µM.
In the case of CC(C)(O)c1ccnc(-c2cccc3cc([C@H](NS(=O)(=O)C4CC4)c4c(F)cccc4Cl)sc23)c1, the microsomal CLint [1] is reported as 18 µL/min/mg and the Papp A→B [2] is reported as 9.5 ×10⁻⁶ cm/s.
In the case of C[C@](O)(c1ccnc(-c2cccc3cc([C@H](NS(=O)(=O)C4CC4)c4ccccc4Cl)sc23)c1)C(F)(F)F, the microsomal CLint [1] is reported as under 14 µL/min/mg and the Papp A→B [2] is reported as 2.4 ×10⁻⁶ cm/s.
O=S(=O)(N[C@@H](c1cc2ccccc2s1)c1ccccc1Cl)c1ccc2c(c1)OCC(F)(F)CO2 gave a microsomal CLint [1] of over 399 µL/min/mg and an EC50 [3] of over 12.5 µM.
In the case of O=S(=O)(N[C@@H](c1cc2ccccc2o1)c1ccccc1Cl)c1ccc2c(c1)OCCCO2, the microsomal CLint [1] is reported as over 399 µL/min/mg and the EC50 [3] is reported as 6.3 µM.
Molecule O=S(=O)(N[C@@H](c1cc2ccccc2s1)c1ccccc1Cl)c1ccc2c(c1)OCC(O)CO2 (mixture of isomers) has a microsomal CLint [1] of 304 µL/min/mg and an EC50 [3] of 4.3 µM.
In the case of O=S(=O)(N[C@@H](c1cc2ccccc2s1)c1ccccc1Cl)c1ccc2c(c1)OCC(F)CO2 (mixture of isomers), the microsomal CLint [1] is reported as over 399 µL/min/mg and the EC50 [3] is reported as 4.1 µM.
